Reference: the Biogen ADME set (Fang et al. 2023)
Converted amounts (≈) assume the structure as drawn.

Details: for aqueous solubility: pH 6.8

Row | SMILES | MDR1-MDCK efflux ratio | fraction unbound, human plasma | fraction unbound, rat plasma | intrinsic clearance, human liver microsomes [mL/min/kg] | intrinsic clearance, rat liver microsomes [mL/min/kg] | aqueous solubility [µg/mL]
1 | CN(C)C(=O)C1(Cc2ccccc2-c2cccc(F)c2)CCN(C(=O)C2CC=CCC2)CC1 (centres undefined) | 1.46 | 0.00787 | 0.0139 | 997 | 2710 | 
2 | CN(C)c1ccc(Cn2c(=O)[nH]c3ccccc3c2=O)cn1 | 4.71 |  |  | 9.13 | 368 | 2.6 (≈ 8.77 µM)
3 | Cc1ccnc(C2CCN(C3CCCC3)CC2)n1 | 1.12 |  |  | ≤ 4.74 | 848 | 16.1 (≈ 65.5 µM)
4 | Cc1nc(-c2ccccc2)c(C(=O)Nc2ccc(Cl)cc2)s1 | 0.438 |  |  |  |  | 0.35 (≈ 1.06 µM)
5 | COc1ccc2ccccc2c1CNC(=O)c1cnc(C2CC2)nc1 | 0.645 |  |  | 33.7 | 442 | 5.12 (≈ 15.4 µM)
6 | COc1ccc(C)cc1NC(=O)CN1CCc2ccccc2C1 | 0.497 |  |  | 191 | 2320 | 15.5 (≈ 50 µM)
7 | Fc1ccc(-c2nnc(CN3CCC(c4c[nH]c5ccccc45)CC3)o2)cc1 |  |  |  | 29.3 | 230 | 8 (≈ 21.3 µM)
8 | Cc1cccc(-n2cnnc2CCCN2CCOCC2)c1 | 30.5 |  |  | ≤ 4.74 | 98.3 | 35 (≈ 122 µM)
9 | O=C(NCc1cnn(-c2ccccc2)c1)C1CCC1 | 0.723 |  |  | ≤ 4.74 | 117 | 31.7 (≈ 124 µM)
10 | CCc1nc2c(C)cc(N3CCN(CC(=O)N4CC(O)C4)CC3)cn2c1N(C)c1nc(-c2ccc(F)cc2)c(C#N)s1 | 97.9 | 0.00624 | 0.00368 | 108 | 557 | 60.3 (≈ 102 µM)
11 | CC(C)(C)C(=O)N1CCC(CN2CCCC[C@@H]2CO)CC1 | 14.3 |  |  | ≤ 4.74 | 29.4 | 50.1 (≈ 169 µM)
12 | CN(Cc1ccccn1)c1nc2ccccc2o1 | 0.718 |  |  | 15 | 361 | 37.8 (≈ 158 µM)
13 | Cc1cc(C(=O)N2CCC(C(=O)c3ccnn3C)CC2)sc1C | 0.723 |  |  | 36.7 | 957 | 
14 | O=C(NCCc1csc(N2CCCC2)n1)N1CCSCC1 | 4.26 |  |  | 61.9 | 882 | 52.6 (≈ 161 µM)
15 | Cc1ccnc(NCc2cccnc2)n1 | 0.596 |  |  | ≤ 4.74 | 16.5 | 
16 | O=C1C(N2CCC(n3c(=O)[nH]c4ccccc43)CC2)CCN1c1ccccc1 (centres undefined) |  |  |  | 4.86 | 139 | 62 (≈ 165 µM)
17 | CCc1ccc2nc(C)cc(C(=O)N3CC(c4cccnc4)C3)c2c1 | 11.2 |  |  | 143 | 656 | 39.3 (≈ 119 µM)
18 | CNc1nc(N2CCCCC2)nc(N2CCCCC2)n1 |  |  |  | 54.7 | 801 | 27 (≈ 97.5 µM)
19 | CCNC(=O)c1ccc(-c2cc(C)cc(OC)c2OC)nc1 | 0.998 |  |  | ≤ 4.74 | 93.1 | 34.8 (≈ 116 µM)

Row | SMILES | MDR1-MDCK efflux ratio | fraction unbound, human plasma | fraction unbound, rat plasma | intrinsic clearance, human liver microsomes [mL/min/kg] | intrinsic clearance, rat liver microsomes [mL/min/kg] | aqueous solubility [µg/mL]
20 | CN(C)C1(CNC(=O)N2CCC=C(c3ccccc3)C2)CCOCC1 | 35.5 |  |  | 34.8 | 874 | 
21 | Cc1ccccc1NC(=O)Cn1nnc(C2CC2)n1 | 0.895 |  |  | ≤ 4.74 | 51.4 | 
22 | C[C@@H](c1ccccc1)N(C)C(=O)NCCN(C)CCO | 18.4 |  |  | ≤ 4.74 | 1140 | 
23 | CCNC(=O)N1CCC(c2nc(-c3ccccc3)no2)CC1 | 0.841 |  |  | ≤ 4.74 | 44.8 | 52.8 (≈ 176 µM)
24 | COc1cccc(C2NC(=O)NC(C)=C2C(=O)OCc2ccc3c(c2)OCO3)c1 (centres undefined) |  |  |  |  |  | 18 (≈ 45.5 µM)
25 | O=c1[nH]c2ccccc2n1C1CCN(Cc2nnc(-c3cc4c(s3)CCCC4)o2)CC1 |  |  |  | 51.8 | 1090 | 2.45 (≈ 5.63 µM)
26 | Cc1nc(NCc2ccc(F)c(Cl)c2)n(C)n1 | 0.789 |  |  | 7.77 | 35.6 | 43.7 (≈ 172 µM)
27 | COc1cc(/C=C2\CCCN([C@@H](C)c3ccc(F)cc3)C2=O)ccc1-n1cnc(C)c1 | 1.48 |  |  | 44.4 | 83.1 | 12.9 (≈ 30.8 µM)
28 | O=C1CCCc2nc(Nc3nc(-c4ccccc4)c4ccccc4n3)ncc21 |  |  |  |  |  | 0.16 (≈ 0.435 µM)
29 | C[C@H]1O[C@@H](Oc2c(-c3cc(O)c(O)c(O)c3)oc3cc(O)cc(O)c3c2=O)[C@@H](O)[C@H](O)[C@H]1O |  |  |  | ≤ 4.74 | ≤ 10.7 | 
30 | CN(C)Cc1cccc(N/C(=C2\C(=O)Nc3cc(C(=O)N(C)C)ccc32)c2ccccc2)c1 | 45.4 |  |  | 76.2 | 152 | 65.7 (≈ 149 µM)
31 | CC(C)C[C@@H](C(N)=O)n1ccnc1-c1cccc2ccccc12 | 47.6 |  |  | 329 | 1410 | 32.6 (≈ 106 µM)
32 | O=C(C1CCC1)N1CCC[C@H]1Cn1nnc(-c2cccs2)n1 | 0.712 |  |  |  | 4750 | 
33 | CN1CCC(CNC(=O)c2ncoc2-c2ccc(F)cc2)CC1 | 1.76 |  |  | ≤ 4.74 | 50.1 | 
34 | Cc1nnc2ncc(-c3cccc4ccnn34)cn12 | 0.468 |  |  | 9.33 | 39.7 | 
35 | Cc1nc(N2CCOc3ccccc3C2)c2cnn(C)c2n1 | 0.513 |  |  | 62.7 | 272 | 42.8 (≈ 145 µM)
36 | Cc1cnc(Nc2ccc(OCCN3CCCC3)cc2)nc1Nc1cccc(S(=O)(=O)NC(C)(C)C)c1 |  |  |  | 34.1 | 209 | 
37 | O=C1CCCN1CCc1nc(-c2ccc3[nH]c(=O)oc3c2)cs1 | 19.1 |  |  | ≤ 4.74 | 65.9 | 59 (≈ 179 µM)
38 | COc1nn(C)cc1C(=O)Nc1cccc2cnccc12 |  | 0.32 | 0.389 | 99.7 | 180 | 40.5 (≈ 143 µM)

Row | SMILES | MDR1-MDCK efflux ratio | fraction unbound, human plasma | fraction unbound, rat plasma | intrinsic clearance, human liver microsomes [mL/min/kg] | intrinsic clearance, rat liver microsomes [mL/min/kg] | aqueous solubility [µg/mL]
39 | CCC[C@@H]1C[C@@H](C(=O)N[C@@H]([C@H]2O[C@H](SC)[C@H](O)[C@@H](O)[C@@H]2O)[C@@H](C)O)N(C)C1 | 2.51 |  |  | 13.3 | 88.3 | 
40 | COCC(=O)Nc1cc(C#N)cn1C(C)(C)C | 1.29 |  |  | ≤ 4.74 | 15.3 | 
41 | Cc1ccc2c(c1)cc(C(=O)N1CCOC(C(=O)N3CCc4ccccc4C3)C1)n2C (centres undefined) | 2.39 |  |  | 196 | 2510 | 
42 | CS(=O)(=O)CCNc1ccc2ccc(F)cc2n1 | 0.652 |  |  | 15.6 | 76.4 | 53.5 (≈ 199 µM)
43 | CCCCN(C)C(=O)Nc1cc(C)ccn1 | 0.56 |  |  | 41.3 | 226 | 24.9 (≈ 113 µM)
44 | Cc1nc(C)c(C(=O)NCc2ncoc2C)s1 |  |  |  | ≤ 4.74 | ≤ 10.7 | 
45 | Cc1noc(C)c1N(C)CCn1cncn1 |  |  |  | ≤ 4.74 | 38.4 | 
46 | CCCCN1CCN(C(=O)c2cccc(-c3ccc(CO)cc3)c2)CC1 | 1.13 |  |  | 26.6 | 269 | 
47 | CO[C@H]1CC[C@H](C(=O)NC[C@H]2CC[C@H](c3nnc(-c4nccc5ccccc45)o3)CC2)CC1 | 8.64 |  |  | 103 | 378 | 21.2 (≈ 47.3 µM)
48 | CCNC1=N[C@@H]2[C@@H](O)[C@@H](O)[C@H](CO)O[C@@H]2S1 |  |  |  | ≤ 4.74 | ≤ 10.7 | 
49 | Cc1ccc2c(CC(=O)N(C)CC(N)=O)coc2c1C |  |  |  |  |  | 34.9 (≈ 127 µM)
50 | C[C@@H](Oc1cc(-c2cnn(C3CCNCC3)c2)cnc1N)c1c(Cl)ccc(F)c1Cl |  |  |  | 23.2 | 106 | 32.5 (≈ 72.2 µM)
51 | Cc1cc(C)c2[nH]c(C(=O)N3CC[C@@](O)(CC(C)C)[C@@H](Oc4ccc(F)cc4)C3)c(C)c2c1 | 4.89 |  |  | 140 | 1910 | 
52 | CC(C)(C)c1csc(CCNC(=O)N2CCSCC2)n1 | 1.14 |  |  | 127 | 956 | 69.1 (≈ 220 µM)
53 | COCCCNc1ncc(-c2cc(C)no2)c(C(C)C)n1 | 0.439 |  |  | 33.4 | 5960 | 
54 | Cc1cc(C)nc(-n2nc(C)c(CC(=O)NC3CCCCCC3)c2C)n1 | 33.3 |  |  | 43.9 | 832 | 54.6 (≈ 154 µM)
55 | CNCC(=O)Nc1cc(Cl)c(OCCOC)c(Cl)c1 |  |  |  |  |  | 87.3 (≈ 284 µM)
56 | Cc1oc(C)c(C(=O)N(C)Cc2ccccc2N2CCOCC2)c1C | 1.58 |  |  | 916 | 5800 | 61.8 (≈ 180 µM)
